Values after ≈ are worked out from the molar mass of the structure shown. Non-standard residues stand in square brackets, D forms with d. Residues, ends and D or L forms follow the SMILES beside them. No end group written: not given here.
What was measured:
Format in all cases: cell-based, Pseudomonas aeruginosa
[1] = tested on: P. aeruginosa ATCC 27853 and ATCC 25668 strains; assay: microbe, parasite or virus in culture; details: ATCC 27853, 24 h
Protocol: The following strains were used: P. aeruginosa ATCC 27853, ATCC 25668, and PAO1-L (Lausanne subline). All strains were grown at 37 °C in Luria Bertani (LB) medium or in Luria Bertani Agar (LBA) plates.
The antibacterial activities of L- and D-Q53 CecB were evaluated by determining (i) the MIC and (ii) the MBC. Tobramycin (Merck) was used as an antibiotic control. (i) An overnight (ON) bacterial culture was diluted to 1 × 10^6 cells/mL in LB medium. 50 µL/well were seeded in sterile polypropylene 96-well plates (Corning, Corning, NY, USA) and added with 50 µL LB medium, containing serial dilutions of each compound (final concentrations of L- and D-Q53 CecB peptides from 1.1 to 35.2 µM; final concentrations of tobramycin from 0.26 to 17 μM; each condition in triplicate). Microbial suspensions in the growing medium (positive control) and wells with only the medium (negative controls) were processed in parallel. Plates were incubated 24 h at 37 °C with agitation (300 rpm), and the absorbance was measured at 600 nm in a microplate reader. The MIC was considered as the lowest concentration determining a delta optical density at 600 nm (ΔOD600) equal to 0 ± 0.05. The ΔOD600 was determined by subtracting the OD600 recorded at time 0 from that obtained after 24 h. Each experiment was performed at least three times. […] For each sample, 100 μL of 1:10, 1:100, and 1:1000 dilutions were plated on LBA plates, and colonies were counted after 24 h at 37 °C. […] Each experiment was performed at least twice.

[2] = tested on: P. aeruginosa ATCC 27853, non-mucoid strain; assay: Degradation of pre-formed 24 h old biofilm, crystal violet; details: for mean decrement in biomass of pre-formed biofilm: 1 h treatment of 24 h old biofilm
Protocol: (§1) One hundred μL of bacteria (1 × 10^6 cells/mL), derived from a fresh ON culture, were seeded in a sterile non-treated polystyrene 96-well plate (Corning) and incubated for 24 h at 37 °C without agitation. […] Evaluation of biofilm biomass was performed using a crystal violet assay as described above (Section 4.8). Experiments were performed two-four times.

[3] = tested on: P. aeruginosa ATCC 25668, mucoid strain; assay: as above; details: for mean decrement in biomass of pre-formed biofilm: 1 h treatment of 24 h old biofilm
Protocol: as §1

[4] = tested on: P. aeruginosa ATCC 25668 strain; assay: Motility assay (swimming, swarming, twitching); details: 1/2 MIC L-Q53 CecB or 1/4 MIC D-Q53 CecB; for effect on swimming motility: 0.3% agar LB plates; for effect on swarming motility: 0.5% agar LB plates; for effect on twitching motility (bacterial growth area): 1% agar LB plates
Protocol: The motility assay was performed as in [36], with minor modifications. […] Inocula were performed with a sterile toothpick (i) within the medium to detect swimming, (ii) on the top of the medium to detect swarming, and (iii) on the bottom of the plate to detect twitching. Bacteria grown and plated in the absence of any peptide were processed as negative controls. Plates were incubated at 30 °C (for swimming and swarming) or 37 °C (for twitching) and monitored for 24–48 h. Plate images were taken with a digital camera. Post-acquisition analyses were performed with Fiji, an open-source image-processing package based on ImageJ (http://fiji.sc/wiki/index.php, downloaded on 4 April 2022). Swimming, swarming, and twitching data were obtained by calculating the area of the growing zone over the total area of each plate. Values were expressed as percentages. Each type of motility was evaluated in at least four independent experiments, each with one replica per condition.

[5] = tested on: P. aeruginosa biofilms (ATCC 25668); assay: Confocal live/dead staining of biofilm-embedded cells; details: 1 h treatment with 1 MIC (2.2 µM) of 24 h-old biofilm; SYTO 9 / Propidium Iodide
Protocol: Bacteria cells (1 × 10^6 cells/mL) were grown in Permanox four-wells chamber slide systems (1.8 cm^2/well; Nunc® Lab-Tek® Chamber Slide™ system) at 37 °C for 24 h without agitation to allow biofilm formation. After washing, biofilms were treated with 2.2 μM L- or D-Q53 CecB peptide for 1 h at 37 °C without agitation. Negative controls, treated with LB only, were followed in parallel.
To visualize live/dead bacteria, samples were stained with 12. 5 μM SYTO™ 9 (Thermo Fisher Scientific) (green, total cells) and 70 μM Propidium Iodide (Merck) (red, dead cells) for 30 min. After washing with PBS, samples were mounted in VECTASHIELD® mounting medium (Vector Laboratories) and observed using a Leica TCS SP5 II confocal microscope, using a ×63 oil immersion objective and a digital magnification of ×3. Optical sections (Z-series) were taken at 0.13 μm intervals. For each condition, experiments were repeated at least twice.
To detect bacteria (green), excitation and emission wavelengths were 488 and 500–530 nm, respectively. EPS was visualized using a 405 nm wavelength for excitation and 413–480 nm for emission (blue); to detect proteins or Propidium Iodide (red), a 543 nm wavelength for excitation and 590–610 nm for emission were used. Post-acquisition analyses were performed with Fiji (http://fiji.sc/wiki/index.php, downloaded on 4 April 2022). […]

[6] = tested on: P. aeruginosa ATCC 25668 (lasI, rpoS, fimX, pslA, pelA, algD); assay: Real-time qPCR of genes involved in biofilm formation; details: 20 h; 1/2 MIC L- or 1/4 MIC D-Q53 CecB; normalised to rplU
Protocol: Bacteria were collected after centrifugation and stored in Trizol Reagent (Ambion, Waltham, MA, USA) at −80 °C, until use. Total RNA was extracted using the Direct-zol RNA MiniPrep kit (Zymo Research, Irvine, CA, USA). The complementary DNA (cDNA) was synthesized using the Maxima™ H Minus cDNA Synthesis Master Mix with dsDNase (Molecular biology, Thermo Scientific). Each qPCR reaction was performed in triplicate, using the GoTaq qPCR Master Mix (Promega, Madison, WI, USA) and a CFX96 Real-Time PCR Detection System (Bio-Rad, Hercules, CA, USA), following the manufacturer’s instructions. The amplification conditions were 95 °C 2 min, (15 s at 95 °C, 1 min at the appropriate annealing temperature Ta, as in Table 5) ×40 cycles. The rplU gene, coding the 50 S ribosomal protein, was used to normalize qPCR data as in [36]. Fold changes were calculated by the 2^−ΔΔCT analysis method.

Compound	MBC [1]	mean decrement in biomass of pre-formed biofilm ([2]; 1/2 MIC (1.1 μM))	reduction of pre-formed biofilm ([2]; 1/4 MIC (0.55 μM), 1 h)	mean decrement in biomass of pre-formed biofilm ([2]; 8 MIC (17.6 μM))	mean decrement in biomass of pre-formed biofilm ([3]; 1/2 MIC (1.1 μM))	reduction of pre-formed biofilm ([3]; 1/4 MIC (0.55 μM), 1 h)	mean decrement in biomass of pre-formed biofilm ([3]; 8 MIC (17.6 μM))	effect on swimming motility [4]	effect on swarming motility [4]	effect on twitching motility (bacterial growth area) [4]	red/green (dead/total) cell ratio vs untreated controls [5]	expression level of fimX [6]	expression level of lasI [6]	expression level of rpoS [6]	expression of algD [6]	expression of pelA [6]	transcription of pslA [6]	reduction of pre-formed biofilm biomass at all tested concentrations ([2]; 1 h, L-Q53 CecB 1/2 to 8 MIC, tobramycin 1 to 8 MIC)	reduction of pre-formed biofilm biomass ([3]; 4 MIC, 1 h, single sample)	reduction of pre-formed biofilm biomass at all tested concentrations ([3]; 1 h, L-Q53 CecB 1/2 to 8 MIC (except 4 MIC), tobramycin 1 to 8 MIC)
CC[C@@H](C)[C@@H](NC(=O)[C@@H](C)NC(=O)[C@@H](CCCCN)NC(=O)[C@@H](C)NC(=O)[C@@H](CO)NC(=O)CNC(=O)[C@@H](CC(C)C)NC(=O)[C@H](NC(=O)[C@@H](CCC(N)=O)NC(=O)[C@H](NC(=O)[C@@H](C)NC(=O)[C@H]1CCCN1C(=O)CNC(=O)[C@@H](C)NC(=O)[C@@H](CCCCN)NC(=O)[C@H](NC(=O)[C@H](NC(=O)CNC(=O)[C@@H](CC(=O)O)NC(=O)[C@@H](CCCNC(=N)N)NC(=O)[C@H](NC(=O)[C@@H](CC(N)=O)NC(=O)[C@@H](CCCNC(=N)N)NC(=O)CNC(=O)[C@@H](CCSC)NC(=O)[C@@H](CCCCN)NC(=O)[C@@H](CCC(=O)O)NC(=O)[C@H](NC(=O)[C@@H](CCCCN)NC(=O)[C@@H](CCCCN)NC(=O)[C@@H](Cc1ccccc1)NC(=O)[C@H](NC(=O)[C@@H](CCCCN)NC(=O)[C@@H](Cc1c[nH]c2ccccc12)NC(=O)[C@H](N)CCCNC(=N)N)[C@H](C)CC)[C@H](C)CC)[C@H](C)CC)[C@H](C)CC)C(C)C)[C@H](C)CC)C(C)C)C(N)=O [D-Q53 CecB] (H-[dR][dW][dK][dI][dF][dK][dK][dI][dE][dK][dM]G[dR][dN][dI][dR][dD]G[dI][dV][dK][dA]G[dP][dA][dI][dQ][dV][dL]G[dS][dA][dK][dA][dI]-NH2; N-terminus and C-terminus assumed)	4.40 µM (≈ 17.1 µg/mL)	49%	lost its ability to reduce pre-formed biofilms	64%	38%	lost its ability to reduce pre-formed biofilms	52%	not able to affect	not able to affect	significant reductions	Significant increments	not significantly different	did not significantly alter	did not significantly alter	significantly lower	significantly lower	did not affect	–	–	–
RWKIFKKIEKMGRNIRDGIVKAGPAIQVLGSAKAI-NH2 [L-Q53 CecB]	11 µM	–	–	–	–	–	–	not able to affect	not able to affect	no effect	Significant increments	not significantly different	did not significantly alter	did not significantly alter	None of the analyzed genes were altered	None of the analyzed genes were altered	did not affect	did not significantly reduce biofilm biomass	significant biofilm biomass decrements	did not significantly reduce biofilm biomass

Reference: publication PMC10419416, “Fighting Pseudomonas aeruginosa Infections: Antibacterial and Antibiofilm Activity of D-Q53 CecB, a Synthetic Analog of a Silkworm Natural Cecropin B Variant” (International Journal of Molecular Sciences, 2023)
